Measured values as given in patent US8633200B2, “Inhibitors of human immunodeficiency virus replication” (priority 2010, dated 2014).
Counter-ions that a name gives are not always drawn.

What follows are compounds tested on recombinant NL-Rluc virus (NL4-3 with Renilla Luciferase gene) in MT-2 cells (assay: Inhibition of HIV replication (NL-Rluc luciferase reporter virus, MT-2 cells)). Settings: NL43, 120 h, read-out: Activity.
Type: cell-based, human immunodeficiency virus (HIV)
For Cc1ccc(-c2c(C(OC(C)(C)C)C(=O)O)c(C)nc3cc(-c4ccccc4)nn23)cc1C (stereo not drawn) [Example 1, 2-tert-Butoxy-2-(7-(3,4-dimethylphenyl)-5-methyl-2-phenylpyrazolo[1,5-a]pyrimidin-6-yl)acetic acid, TFA salt], the EC50 was > 1 µM. With Cc1nc2cc(-c3ccccc3)nn2c(-c2ccc3c(c2)CCC3)c1C(OC(C)(C)C)C(=O)O (stereo not drawn) [Example 2] the EC50 was > 1 µM. Cc1nc2cc(-c3ccccc3)nn2c(-c2ccc3c(c2)CCCO3)c1C(OC(C)(C)C)C(=O)O (stereo not drawn) [Example 3] showed an EC50 of 0.1 to 1 µM. Cc1nc2cc(-c3ccccc3)nn2c(-c2ccc(Cl)cc2)c1C(OC(C)(C)C)C(=O)O (stereo not drawn) [Example 4] was tested, and the EC50 was > 1 µM. Cc1nc2cc(-c3ccccc3)nn2c(-c2ccc3ccccc3c2)c1C(OC(C)(C)C)C(=O)O (stereo not drawn) [Example 5] was tested, and the EC50 was > 1 µM. For Cc1nc2cc(-c3ccccc3)nn2c(-c2cccnc2)c1C(OC(C)(C)C)C(=O)O (stereo not drawn) [Example 6], the EC50 was > 1 µM. With Cc1nc2cc(-c3ccccc3)nn2c(-c2ccccc2OC(F)(F)F)c1C(OC(C)(C)C)C(=O)O (stereo not drawn) [Example 7] the EC50 was > 1 µM. In the case of COc1cccc(-c2c(C(OC(C)(C)C)C(=O)O)c(C)nc3cc(-c4ccccc4)nn23)c1 (stereo not drawn) [Example 8], the EC50 is reported as > 1 µM. In the case of COc1ccccc1-c1c(C(OC(C)(C)C)C(=O)O)c(C)nc2cc(-c3ccccc3)nn12 (stereo not drawn) [Example 9], the EC50 is reported as > 1 µM. With Cc1nc2cc(-c3ccccc3)nn2c(-c2ccccc2)c1C(OC(C)(C)C)C(=O)O (stereo not drawn) [Example 10] the EC50 was > 1 µM. In the case of CC(=O)Nc1ccc(-c2c(C(OC(C)(C)C)C(=O)O)c(C)nc3cc(-c4ccccc4)nn23)cc1 (stereo not drawn) [Example 11], the EC50 is reported as > 1 µM. For COc1ccc(-c2c(C(OC(C)(C)C)C(=O)O)c(C)nc3cc(-c4ccccc4)nn23)cn1 (stereo not drawn) [Example 12], the EC50 was > 1 µM. With Cc1nc2cc(-c3ccccc3)nn2c(-c2ccc(C#N)cc2)c1C(OC(C)(C)C)C(=O)O (stereo not drawn) [Example 13] the EC50 was > 1 µM. With Cc1ccccc1-c1c(C(OC(C)(C)C)C(=O)O)c(C)nc2cc(-c3ccccc3)nn12 (stereo not drawn) [Example 14] the EC50 was > 1 µM. Cc1nc2cc(-c3ccccc3)nn2c(-c2ccc(C(F)(F)F)cc2)c1C(OC(C)(C)C)C(=O)O (stereo not drawn) [Example 15] was tested, and the EC50 was > 1 µM. In the case of Cc1nc2cc(-c3ccccc3)nn2c(-c2cccc(Cl)c2)c1C(OC(C)(C)C)C(=O)O (stereo not drawn) [Example 16], the EC50 is reported as > 1 µM. With Cc1cccc(-c2c(C(OC(C)(C)C)C(=O)O)c(C)nc3cc(-c4ccccc4)nn23)c1 (stereo not drawn) [Example 17] the EC50 was > 1 µM. For Cc1nc2cc(-c3ccccc3)nn2c(-c2ccc(F)cc2F)c1C(OC(C)(C)C)C(=O)O (stereo not drawn) [Example 18], the EC50 was > 1 µM. In the case of Cc1nc2cc(-c3ccccc3)nn2c(-c2ccc3c(c2)OCCO3)c1C(OC(C)(C)C)C(=O)O (stereo not drawn) [Example 19], the EC50 is reported as > 1 µM. Cc1nc2cc(-c3ccccc3)nn2c(-c2ccc(O)cc2)c1C(OC(C)(C)C)C(=O)O (stereo not drawn) [Example 20] was tested, and the EC50 was > 1 µM. In the case of Cc1nc2cc(-c3ccccc3)nn2c(-c2ccncc2)c1C(OC(C)(C)C)C(=O)O (stereo not drawn) [Example 21], the EC50 is reported as > 1 µM. COc1ccc(-c2c(C(OC(C)(C)C)C(=O)O)c(C)nc3cc(-c4ccccc4)nn23)cc1OC (stereo not drawn) [Example 22] was tested, and the EC50 was > 1 µM. Cc1nc2cc(-c3ccccc3)nn2c(-c2ccc(F)cc2)c1C(OC(C)(C)C)C(=O)O (stereo not drawn) [Example 23] was tested, and the EC50 was > 1 µM. For Cc1nc2cc(-c3ccccc3)nn2c(-c2ccc(Oc3ccccc3)cc2)c1C(OC(C)(C)C)C(=O)O (stereo not drawn) [Example 24], the EC50 was > 1 µM. In the case of Cc1nc2cc(-c3ccccc3)nn2c(-c2ccc(OC(F)(F)F)cc2)c1C(OC(C)(C)C)C(=O)O (stereo not drawn) [Example 25], the EC50 is reported as > 1 µM. Compound Cc1nc2cc(-c3ccccc3)nn2c(-c2ccc3c(c2)CCO3)c1C(OC(C)(C)C)C(=O)O (stereo not drawn) [Example 26] has an EC50 of 0.1 to 1 µM. In the case of Cc1nc2cc(-c3ccccc3)nn2c(-c2ccc(Cl)cc2F)c1C(OC(C)(C)C)C(=O)O (stereo not drawn) [Example 27], the EC50 is reported as > 1 µM. With Cc1nc2cc(-c3ccccc3)nn2c(-c2ccc3occc3c2)c1C(OC(C)(C)C)C(=O)O (stereo not drawn) [Example 28] the EC50 was > 1 µM. In the case of COc1ccc(-c2c(C(OC(C)(C)C)C(=O)O)c(C)nc3cc(-c4ccccc4)nn23)cc1C(F)(F)F (stereo not drawn) [Example 29], the EC50 is reported as > 1 µM. With Cc1nc2cc(-c3ccccc3)nn2c(-c2ccc3c(c2)OCO3)c1C(OC(C)(C)C)C(=O)O (stereo not drawn) [Example 30] the EC50 was > 1 µM. In the case of Cc1nc2cc(-c3ccccc3)nn2c(-c2ccc(OCc3ccccc3)cc2)c1C(OC(C)(C)C)C(=O)O (stereo not drawn) [Example 31], the EC50 is reported as > 1 µM. For COc1ccc(-c2c(C(OC(C)(C)C)C(=O)O)c(C)nc3cc(-c4ccccc4)nn23)cc1 (stereo not drawn) [Example 32], the EC50 was > 1 µM. For COc1ccc(-c2c(C(OC(C)(C)C)C(=O)O)c(C)nc3cc(-c4ccccc4)nn23)cc1F (stereo not drawn) [Example 33], the EC50 was > 1 µM. With Cc1nc2cc(-c3ccccc3)nn2c(-c2ccc(OC(C)C)cc2)c1C(OC(C)(C)C)C(=O)O (stereo not drawn) [Example 34] the EC50 was > 1 µM. COc1cc(F)c(-c2c(C(OC(C)(C)C)C(=O)O)c(C)nc3cc(-c4ccccc4)nn23)cc1F (stereo not drawn) [Example 35] was tested, and the EC50 was > 1 µM. With Cc1nc2cc(-c3ccccc3)nn2c(-c2ccc3c(ccn3C)c2)c1C(OC(C)(C)C)C(=O)O (stereo not drawn) [Example 36] the EC50 was 0.1 to 1 µM. With Cc1nc2cc(-c3ccccc3)nn2c(-c2ccc3c4c(ccnc24)CCO3)c1C(OC(C)(C)C)C(=O)O (stereo not drawn) [Example 37] the EC50 was > 1 µM. Cc1nc2cc(-c3ccccc3)nn2c(-c2cc(F)c3c(c2C)CCCO3)c1C(OC(C)(C)C)C(=O)O (stereo not drawn) [Example 38] showed an EC50 of 0.1 to 1 µM. With Cc1nc2cc(-c3ccccc3)nn2c(-c2cc(F)c3c(c2C)CCCO3)c1[C@H](OC(C)(C)C)C(=O)O [Example 39, (2S)-2-tert-butoxy-2-(7-(8-fluoro-5-methylchroman-6-yl)-5-methyl-2-phenylpyrazolo[1,5-a]pyrimidin-6-yl)acetic acid] the EC50 was < 0.1 µM. In the case of Cc1nc2cc(-c3ccccc3)nn2c(-c2cc(F)c3c(c2C)CCCO3)c1[C@@H](OC(C)(C)C)C(=O)O [Example 40, (2R)-2-tert-butoxy-2-(7-(8-fluoro-5-methylchroman-6-yl)-5-methyl-2-phenylpyrazolo[1,5-a]pyrimidin-6-yl)acetic acid], the EC50 is reported as > 1 µM. In the case of Cc1ccc(-c2c(C(OC(C)(C)C)C(=O)O)c(C)nc3cc(-c4ccccc4)nn23)cc1 (stereo not drawn) [Example 41, 2-tert-Butoxy-2-(5-methyl-2-phenyl-7-p-tolylpyrazolo[1,5-a]pyrimidin-6-yl)acetic acid, TFA salt], the EC50 is reported as 0.1 to 1 µM. Cc1ccc(-c2c(C(OC(C)(C)C)C(=O)O)c(C)nc3ccnn23)cc1 (stereo not drawn) [Example 42, 2-tert-Butoxy-2-(5-methyl-7-p-tolylpyrazolo[1,5-a]pyrimidin-6-yl)acetic acid, TFA salt] was tested, and the EC50 was > 1 µM. Cc1nc2cc(-c3ccccc3)nn2c(C)c1C(OC(C)(C)C)C(=O)O (stereo not drawn) [Example 43, 2-tert-Butoxy-2-(5,7-dimethyl-2-phenylpyrazolo[1,5-a]pyrimidin-6-yl)acetic acid, TFA salt] was tested, and the EC50 was > 1 µM. Cc1nc2c(-c3ccccc3)cnn2c(-c2cc(F)c3c(c2C)CCCO3)c1C(OC(C)(C)C)C(=O)O (stereo not drawn) [Example 44, 2-tert-Butoxy-2-(7-(8-fluoro-5-methylchroman-6-yl)-5-methyl-3-phenylpyrazolo[1,5-a]pyrimidin-6-yl)acetic acid, TFA salt] was tested, and the EC50 was > 1 µM.

Same assay, conditions: NL43, 120 h, read-out: EC50 μM
Cc1ccc(-c2c(C(OC(C)(C)C)C(=O)O)c(C)nc3cc(-c4ccccc4)nn23)cc1 (stereo not drawn) [Example 41, 2-tert-Butoxy-2-(5-methyl-2-phenyl-7-p-tolylpyrazolo[1,5-a]pyrimidin-6-yl)acetic acid, TFA salt] gave an EC50 of 0.6 µM. Work on Cc1ccc(-c2c(C(OC(C)(C)C)C(=O)O)c(C)nc3ccnn23)cc1 (stereo not drawn) [Example 42, 2-tert-Butoxy-2-(5-methyl-7-p-tolylpyrazolo[1,5-a]pyrimidin-6-yl)acetic acid, TFA salt] yielded an EC50 of 4.5 µM. Work on Cc1nc2cc(-c3ccccc3)nn2c(C)c1C(OC(C)(C)C)C(=O)O (stereo not drawn) [Example 43, 2-tert-Butoxy-2-(5,7-dimethyl-2-phenylpyrazolo[1,5-a]pyrimidin-6-yl)acetic acid, TFA salt] yielded an EC50 of 40 µM. Work on Cc1nc2c(-c3ccccc3)cnn2c(-c2cc(F)c3c(c2C)CCCO3)c1C(OC(C)(C)C)C(=O)O (stereo not drawn) [Example 44, 2-tert-Butoxy-2-(7-(8-fluoro-5-methylchroman-6-yl)-5-methyl-3-phenylpyrazolo[1,5-a]pyrimidin-6-yl)acetic acid, TFA salt] yielded an EC50 of 3 µM.
